Laboratory results reported in US6737383B1, “Herbicidal oxadiazolidines” (priority 1999, dated 2004).

How the values were obtained:
giant foxtail = assay: Test B pre/postemergence giant foxtail; assay type: in vivo, Setaria faberii
Summary of the method: (§1)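 Response is a visual 0-to-10 score relative to untreated plants, where 0 means no effect and 10 means complete control, taken twelve to sixteen days after application. Treatments went onto soil at planting and onto foliage of 1- to 4-leaf plants, using a surfactant-containing non-phytotoxic solvent.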

sugar beet = assay: Test B pre/postemergence sugar beet; assay type: in vivo, Beta vulgaris
Summary of the method: as §1

bedstraw = assay: Test B pre/postemergence bedstraw; assay type: in vivo, Galium aparine
Summary of the method: as §1

rice = assay: Test B flood test rice; assay type: in vivo, Oryza sativa
Summary of the method: (§2)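 Each value is a visual injury score relative to controls, with 10 meaning complete control and 0 no effect. Evaluation took place twelve to sixteen days after the 2-leaf-stage plants were treated and kept in the greenhouse.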

cocklebur = assay: Test B pre/postemergence cocklebur; assay type: in vivo, Xanthium strumarium
Summary of the method: as §1

pigweed = assay: Test B pre/postemergence pigweed; assay type: in vivo, Amaranthus retroflexus
Summary of the method: as §1

corn = assay: Test B pre/postemergence corn; assay type: in vivo, Zea mays
Summary of the method: as §1

blackgrass = assay: Test B pre/postemergence blackgrass; assay type: in vivo, Alopecurus myosuroides
Summary of the method: as §1

morningglory = assay: Test B pre/postemergence morningglory; assay type: in vivo, Ipomoea hederacea
Summary of the method: as §1

rape = assay: Test B pre/postemergence rape; assay type: in vivo, Brassica napus
Summary of the method: as §1

bamyardgrass = assay: Test B flood test barnyardgrass; assay type: in vivo, Echinochloa crus-galli
Summary of the method: as §2

purple nutsedge = assay: Test B pre/postemergence purple nutsedge; assay type: in vivo, Cyperus rotundus
Summary of the method: as §1

surinam grass = assay: Test B pre/postemergence surinam grass; assay type: in vivo, Brachiaria decumbens
Summary of the method: as §1

velvetleaf = assay: Test B pre/postemergence velvetleaf; assay type: in vivo, Abutilon theophrasti
Summary of the method: as §1

duck salad = assay: Test B flood test duck salad; assay type: in vivo, Heteranthera limosa
Summary of the method: as §2

[1] = Preemergence, Rate 62 g/ha, scale of 0 to 10 where 0 is no effect and 10 is complete control
[2] = Preemergence, Rate 125 g/ha, 0 is no effect, 10 is complete control
[3] = Preemergence, Rate 250 g/ha, scale 0 to 10, 0 is no effect, 10 is complete control
[4] = Preemergence, Rate 500 g/ha, scale of 0 to 10 where 0 is no effect and 10 is complete control
[5] = Rate 62 g/ha, Postemergence, scale of 0 to 10 where 0 is no effect and 10 is complete control
[6] = Rate 125 g/ha, Postemergence, scale 0 to 10
[7] = Rate 500 g/ha, Postemergence, scale 0 to 10
[8] = Rate 62 g/ha, Postemergence section, flood test species, scale of 0 to 10 where 0 is no effect and 10 is complete control
[9] = Rate 125 g/ha, listed under Postemergence (flood test species), scale 0 to 10
[10] = Rate 250 g/ha, Postemergence section, flood test species
[11] = Rate 500 g/ha, listed under Postemergence (flood test species), scale 0 to 10

C=C(C)CCn1c(=O)on(C(=O)N(c2ccc(F)cc2)C(C)C)c1=O [Compound 199]
Giant foxtail plant response rating (giant foxtail; [1]): 7
Giant foxtail plant response rating (0 to 10 scale) (giant foxtail; [2]): 10
Giant foxtail plant response rating (giant foxtail; [3]): 10
Plant response rating, Giant foxtail (giant foxtail; [4]): 10
Giant foxtail plant response rating (giant foxtail; [5]): 0
Giant foxtail plant response rating (giant foxtail; [6]): 2
Plant response rating (0 to 10; 0 is no effect, 10 is complete control), Giant foxtail (giant foxtail; Rate 250 g/ha, Postemergence): 2
Giant foxtail plant response rating (giant foxtail; [7]): 7
Sugarbeets plant response rating (sugar beet; [1]): 4
Sugarbeets plant response rating (0 to 10 scale) (sugar beet; [2]): 5
Sugarbeets plant response rating (sugar beet; [3]): 5
Plant response rating, Sugarbeets (sugar beet; [4]): 6
Sugarbeets plant response rating (sugar beet; [5]): 0
Sugarbeets plant response rating (sugar beet; [6]): 0
Plant response rating (0 to 10; 0 is no effect, 10 is complete control), Sugarbeets (sugar beet; Rate 250 g/ha, Postemergence): 0
Sugarbeets plant response rating (sugar beet; [7]): 2
Bedstraw plant response rating (bedstraw; [1]): 0
Bedstraw plant response rating (0 to 10 scale) (bedstraw; [2]): 0
Bedstraw plant response rating (bedstraw; [3]): 0
Plant response rating, Bedstraw (bedstraw; [4]): 0
Bedstraw plant response rating (bedstraw; [5]): 0
Bedstraw plant response rating (bedstraw; [6]): 0
Plant response rating (0 to 10; 0 is no effect, 10 is complete control), Bedstraw (bedstraw; Rate 250 g/ha, Postemergence): 0
Bedstraw plant response rating (bedstraw; [7]): 2
Rice plant response rating (rice; [8]): 0
Rice plant response rating (rice; [9]): 0
Plant response rating (0 to 10; 0 is no effect, 10 is complete control), Rice (rice; [10]): 0
Rice plant response rating (rice; [11]): 0
Cocklebur plant response rating (cocklebur; [1]): 0
Cocklebur plant response rating (0 to 10 scale) (cocklebur; [2]): 0
Cocklebur plant response rating (cocklebur; [3]): 0
Plant response rating, Cocklebur (cocklebur; [4]): 0
Cocklebur plant response rating (cocklebur; [5]): 0
Cocklebur plant response rating (cocklebur; [6]): 0
Plant response rating (0 to 10; 0 is no effect, 10 is complete control), Cocklebur (cocklebur; Rate 250 g/ha, Postemergence): 0
Cocklebur plant response rating (cocklebur; [7]): 3
Redroot pigweed plant response rating (pigweed; [1]): 7
Redroot pigweed plant response rating (0 to 10 scale) (pigweed; [2]): 7
Redroot pigweed plant response rating (pigweed; [3]): 10
Plant response rating, Redroot pigweed (pigweed; [4]): 10
Redroot pigweed plant response rating (pigweed; [5]): 0
Redroot pigweed plant response rating (pigweed; [6]): 0
Plant response rating (0 to 10; 0 is no effect, 10 is complete control), Redroot pigweed (pigweed; Rate 250 g/ha, Postemergence): 2
Redroot pigweed plant response rating (pigweed; [7]): 6
Corn plant response rating (corn; [1]): 0
Corn plant response rating (0 to 10 scale) (corn; [2]): 0
Corn plant response rating (corn; [3]): 0
Plant response rating, Corn (corn; [4]): 0
Corn plant response rating (corn; [5]): 0
Corn plant response rating (corn; [6]): 0
Plant response rating (0 to 10; 0 is no effect, 10 is complete control), Corn (corn; Rate 250 g/ha, Postemergence): 0
Corn plant response rating (corn; [7]): 0
Blackgrass plant response rating (blackgrass; [1]): 6
Blackgrass plant response rating (0 to 10 scale) (blackgrass; [2]): 10
Blackgrass plant response rating (blackgrass; [3]): 10
Plant response rating, Blackgrass (blackgrass; [4]): 10
Blackgrass plant response rating (blackgrass; [5]): 0
Blackgrass plant response rating (blackgrass; [6]): 4
Plant response rating (0 to 10; 0 is no effect, 10 is complete control), Blackgrass (blackgrass; Rate 250 g/ha, Postemergence): 9
Blackgrass plant response rating (blackgrass; [7]): 9
Morningglory plant response rating (morningglory; [1]): 0
Morningglory plant response rating (0 to 10 scale) (morningglory; [2]): 0
Morningglory plant response rating (morningglory; [3]): 0
Plant response rating, Morningglory (morningglory; [4]): 0
Morningglory plant response rating (morningglory; [5]): 4
Morningglory plant response rating (morningglory; [6]): 4
Plant response rating (0 to 10; 0 is no effect, 10 is complete control), Morningglory (morningglory; Rate 250 g/ha, Postemergence): 4
Morningglory plant response rating (morningglory; [7]): 8
Rape plant response rating (rape; [1]): 0
Rape plant response rating (0 to 10 scale) (rape; [2]): 0
Rape plant response rating (rape; [3]): 0
Plant response rating, Rape (rape; [4]): 0
Rape plant response rating (rape; [5]): 0
Rape plant response rating (rape; [6]): 0
Plant response rating (0 to 10; 0 is no effect, 10 is complete control), Rape (rape; Rate 250 g/ha, Postemergence): 0
Rape plant response rating (rape; [7]): 0
Barnyardgrass plant response rating (bamyardgrass; [8]): 0
Barnyardgrass plant response rating (bamyardgrass; [9]): 0
Plant response rating (0 to 10; 0 is no effect, 10 is complete control), Barnyardgrass (bamyardgrass; [10]): 0
Barnyardgrass plant response rating (bamyardgrass; [11]): 8
Nutsedge plant response rating (purple nutsedge; [1]): 0
Nutsedge plant response rating (0 to 10 scale) (purple nutsedge; [2]): 0
Nutsedge plant response rating (purple nutsedge; [3]): 0
Plant response rating, Nutsedge (purple nutsedge; [4]): 10
Nutsedge plant response rating (purple nutsedge; [5]): 0
Nutsedge plant response rating (purple nutsedge; [6]): 0
Plant response rating (0 to 10; 0 is no effect, 10 is complete control), Nutsedge (purple nutsedge; Rate 250 g/ha, Postemergence): 0
Nutsedge plant response rating (purple nutsedge; [7]): 0
B. signalgrass plant response rating (surinam grass; [1]): 0
B. signalgrass plant response rating (0 to 10 scale) (surinam grass; [2]): 1
B. signalgrass plant response rating (surinam grass; [3]): 6
Plant response rating, B. signalgrass (surinam grass; [4]): 9
B. signalgrass plant response rating (surinam grass; [5]): 0
B. signalgrass plant response rating (surinam grass; Rate 125 g/ha, Postemergence, scale 0 (no effect) to 10 (complete control)): 0
Plant response rating, B. signalgrass (surinam grass; Rate 250 g/ha, Postemergence, scale 0 to 10, 0 is no effect, 10 is complete control): 0
Velvetleaf plant response rating (velvetleaf; [1]): 0
Velvetleaf plant response rating (velvetleaf; [3]): 0
Plant response rating, Velvetleaf (velvetleaf; [4]): 0
Velvetleaf plant response rating (velvetleaf; [5]): 0
Velvetleaf plant response rating (velvetleaf; [6]): 0
Plant response rating (0 to 10; 0 is no effect, 10 is complete control), Velvetleaf (velvetleaf; Rate 250 g/ha, Postemergence): 0
Ducksalad plant response rating (duck salad; [8]): 0
Ducksalad plant response rating (duck salad; [9]): 0
Plant response rating (0 to 10; 0 is no effect, 10 is complete control), Ducksalad (duck salad; [10]): 0
Ducksalad plant response rating (duck salad; [11]): 2
